In patent publication US11684617B2, “Methods of diagnosing and treating ADHD in biomarker positive subjects” (The Children's Hospital of Philadelphia, priority 2017, dated 2023):
Several values for one entry are separate records, joined by “and”; a condition that tells them apart may be missing. Equal entries are not always repeated.

Legend:
[1] = system: group I and group II/III mGluRs; conditions: in vitro studies (Hirouchi 2000); cited from earlier work
[2] = prior human studies; cited from earlier work
animal models = conditions: cited from earlier work
[3] = system: CNV-positive adolescents with moderately severe ADHD; experiment: SAGA Phase 2 study: ADHD-RS-5 total score change from baseline (LOCF); assay type: in vivo, human; set-up: Response (% reduction in ADHD-RS score at endpoint from baseline): concentration or dose not given beside the values; conditions: for Response (change from baseline in ADHD RS-5 total score): Table 19
Text: Subjects received randomized treatment with either NFC-1 or placebo. Subjects had ADHD as defined by the Diagnostic and Statistical Manual of Mental Disorders, 5th edition (DSM-5) and Version 5 of the Attention Deficit Hyperactivity Disorder Rating Scale (ADHD RS-5) >28 at Baseline with or without conventional ADHD therapy.
The study was a multicenter, Phase 2, double-blind, randomized, placebo-controlled, parallel-group, dose-optimization study. The study enrolled adolescents 12-17 yrs (inclusive) with ADHD defined by DSM-5 criteria.
Subjects were CNV positive for a CNVs in at least one of the 273 Tier 1 or Tier 2 glutamatergic network genes of interest as listed in Table 1 or 2. These subjects positive for a CNV may also be termed “biomarker positive.”
(§1) The maximum dose was 400 mg BID or placebo.
Efficacy was assessed by the ADHD RS-5, CGI-I, CGI-S, the Adolescent Sleep Hygiene Scale (ASHS), and the Screen for Childhood Anxiety-related Emotional Disorders (SCARED).
The primary efficacy endpoint was the change from baseline in ADHD-RS-5 total score to end of study (last observation carried forward, LOCF) in Intent-to-Treat (ITT) population. The ITT population consisted of 101 patients randomized to NFC-1 or placebo.

[4] = system: dementia-related cognitive impairment; conditions: cited from earlier work
[5] = system: CNV-positive adolescents with moderately severe ADHD; conditions: in vivo
[6] = system: CNV-positive adolescents with moderately severe ADHD; experiment: SAGA Phase 2 study: remission (ADHD-RS-5 <=18, CGI-I 1, composite); assay type: in vivo, human; conditions: endpoint; data not shown
Description: as §1
The definition of a “remission” in this study was a response at endpoint of:
A) ADHD-RS-5 Total score ≤18; • B) CGI-I score of 1. OR • C) Composite (both A and B)

[7] = system: CNV-positive adolescents with moderately severe ADHD; experiment: SAGA Phase 2 study: tolerability/safety, treatment-emergent adverse events (safety population); conditions: safety population; NFC-1 n = 47
[8] = system: CNV-positive adolescents with moderately severe ADHD; experiment: SAGA Phase 2 study: treatment response (responder: >=30% ADHD-RS-5 reduction, CGI-I 1 or 2, composite); assay type: in vivo, human; conditions: for Responder? (Y/N): Table 19
Description: as §1
Treatment response was evaluated by measurement of responders and remission. The definition of a “responder” in this study was a response at endpoint of:
A) ≥30% reduction from Baseline in ADHD-RS-5 Total score; • B) CGI-I score of 1 (very much improved) or 2 (much improved); OR • C) Composite (both A and B)
Throughout, the “Response” columns represent the % reduction in ADHD-RS score at endpoint from baseline. […]

pediatric ADHD subjects = pediatric ADHD subjects (Akhundian 2001); cited from earlier work
[9] = NFC-1-treated patient with CNV in ADRA2A
[10] = NFC-1-treated patient with CNV in CA8
[11] = NFC-1-treated patient with CNV in GRM5
[12] = NFC-1-treated patient with CNV in SNCA
[13] = study end (LOCF), 8-Gene Subset including CNTN4, NFC-1 BID n = 17, p <0.0001 vs placebo
[14] = study end (LOCF), CNTN4 Subset, NFC-1 BID n = 6, p <0.01 vs placebo
[15] = treatment response at endpoint (ITT, LOCF), NFC-1 BID n = 46, p <0.05 vs placebo

O=C1CC[C@H](C(=O)N2CCCCC2)N1 [Fasoracetam, (+)-5-oxo-D-prolinepiperidinamide]
stimulation of mGluRs [1]: can stimulate both group I and group II/III mGluRs | bioavailable [2]: 79%-97% | half-life [2]: 5 to 6.5 h

O=C1CC[C@H](C(=O)N2CCCCC2)N1 [NFC-1, fasoracetam monohydrate]
effects on learning and memory (animal models): Positive effects | difference between placebo and NFC-1 in ADHD-RS-5 total score change from Baseline to LOCF endpoint (primary endpoint) ([3]; ITT, overall population, optimized dose 100, 200 or 400 mg BID): not significant | Response (% reduction in ADHD-RS score at endpoint from baseline) ([3]; Table 16, individual subjects with CNV in CNTN4 in the NFC-1-treated group, monohydrate): −41.46% and −35.9% and −77.42% and −70% and −62.5% and −48.65% | Response (change from baseline in ADHD RS-5 total score) [3, 9]: −65% | Response (change from baseline in ADHD RS-5 total score) [3, 10]: −33.3333% | Response (change from baseline in ADHD RS-5 total score) [3, 11]: −37.5% | Response (change from baseline in ADHD RS-5 total score) [3, 12]: −76.9231% | Response (change from baseline in ADHD RS-5 total score) ([3]; NFC-1-treated patients with CNV in GRM8, monohydrate): −48.2759% and −39.0244% | safety and tolerability ([4]; Phase I-III trials, dementia indications): generally safe and well tolerated | effects on psychiatric symptoms ([4]; Phase III data, cerebral infarct patients and adult dementia patients with cerebrovascular diseases): beneficial effects | efficacy in dementia ([4]; Phase III trials): did not show sufficient efficacy | subjects in whom dosing with the highest dose (400 mg BID) was achieved ([5]; human, 4 weeks): 91% | Any TEAE, % of subjects ([5]; human, 6 weeks): 70% | Discontinuations due to TEAEs, % of subjects ([5]; human, 6 weeks): 6% | TEAE: Accidental overdose, % of subjects ([5]; human, 6 weeks): 11% | TEAE: Appetite increased, % of subjects ([5]; human, 6 weeks): 6% | TEAE: Fatigue, % of subjects ([5]; human, 6 weeks): 15% | TEAE: Headache, % of subjects ([5]; human, 6 weeks): 9% | TEAE: Irritability, % of subjects ([5]; human, 6 weeks): 2% | TEAE: Nasopharyngitis, % of subjects ([5]; human, 6 weeks): 2% | TEAE: Nausea, % of subjects ([5]; human, 6 weeks): 6% | TEAE: Weight increased, % of subjects ([5]; human, 6 weeks): 15% | overall tolerability [5]: generally well-tolerated | serious TEAEs [5]: No serious TEAEs were reported | severity of TEAEs [5]: majority of TEAEs were mild-to-moderate | difference between treatment groups in remission [6]: no significant difference | TEAE: Upper respiratory tract infection, % of subjects [7]: 4% | Responder? (Y/N) [8, 9]: Y (“Responder” indicates a 30% or greater reduction from baseline in ADHD RS-5 total score) | Responder? (Y/N) [8, 10]: Y (“Responder” indicates a 30% or greater reduction from baseline in ADHD RS-5 total score) | Responder? (Y/N) [8, 11]: Y (“Responder” indicates a 30% or greater reduction from baseline in ADHD RS-5 total score) | Responder? (Y/N) [8, 12]: Y (“Responder” indicates a 30% or greater reduction from baseline in ADHD RS-5 total score) | Responder? (Y/N) ([8]; NFC-1-treated patients with CNV in CNTN4): Y (“Responder” indicates a 30% or greater reduction from baseline in ADHD RS-5 total score) | Responder? (Y/N) ([8]; NFC-1-treated patients with CNV in GRM8): Y (“Responder” indicates a 30% or greater reduction from baseline in ADHD RS-5 total score) | ADHD-RS-5 Total Score: ≥30% Reduction from Baseline, % of subjects [8, 13]: 88% (15) | CGI-I Score 1 or 2, % of subjects [8, 13]: 76% (13) | Composite response, % of subjects [8, 13]: 76% (13) | ADHD-RS-5 Total Score: ≥30% Reduction from Baseline, % of subjects ([8]; study end (LOCF), CNTN4 Subset, NFC-1 BID n = 6, p <0.005 vs placebo): 100% (6) | CGI-I Score 1 or 2, % of subjects [8, 14]: 83% (5) | Composite response, % of subjects [8, 14]: 83% (5) | patients with 30% or greater reduction from baseline in ADHD RS-5 total score ([8]; subjects with a CNV in CNTN4 assigned to NFC-1): 6/6 | ADHD RS-5 Total Score: ≥30% Reduction from Baseline, % of subjects ([8]; treatment response at endpoint (ITT, LOCF), NFC-1 BID n = 46, p <0.01 vs placebo): 70% (32) | CGI-I Score 1 or 2, % of subjects [8, 15]: 57% (26) | Composite response, % of subjects [8, 15]: 57% (26)

NC(=O)CN1CCCC1=O [piracetam]
effect on ADHD symptoms compared to placebo control (pediatric ADHD subjects): increase ADHD symptoms
